Experimental data as given in patent US7011845B2, “β-glucans encapsulated in liposomes” (MCP Hahnemann University, priority 2000, dated 2006).

Tests used:
[1] = Quantification of lentinan in serum after oral administration (Fungitec G test); format: in vivo; conditions: mice fed orally four times with 100 μg (total 400 μg) during 4 hr, serum 2 hr after last administration, mean ± SD
Description: Formulations of 400 μg of lentinan dissolved in PBS or associated with liposomes were delivered orally in four doses to fasted mice over a period of 4 hrs. The level of lentinan in blood serum was measured 2 hr after the delivery using the Fungitec G test (Seikagaku Co., Inc.), according to the manufacturer's protocol. Background activity was determined by analyzing lentinan levels in sera of control mice.
We first investigated whether lentinan dissolved in PBS or associated with liposomes would penetrate through the epithelial barrier of the gut. Mice were fed with four doses of liposome-associated or unencapsulated lentinan (total concentration of 400 μg) over a 4-hr period. The level of lentinan in blood serum was analyzed 2 hr after lentinan administration.

[2] = tested on: splenocytes stimulated with rgp160

Question: For Lentinan, which “Serum concentration of lentinan” value ([1]; listed as Unencapsulated lentinan) is on record?
Answer: Its value is 1,325 ± 1,241 pg/ml.

Question: What about the “Serum concentration of lentinan” value ([1]; listed as unencapsulated lentinan) of the same substance?
Answer: Its value is 1,325±1,241 pg/ml.

Question: And the “Toxic effect to the cells” value [2]?
Answer: The value was “without any detectable toxic effect”.

Question: And the “Env-specific IFN-γ level relative to stimulation with rgp160 in the absence of lentinan” value ([2]; lentinan 3 μg/ml to 100 μg/ml, 3 days, FIG. 3)?
Answer: The value was roughly 2 fold.

Question: What about the “Effect on env-specific IFN-γ production” value ([2]; lentinan higher than 100 μg/ml or lower than 3 μg/ml) of the same substance?
Answer: Its value is “smaller effect”.
